What all share (format): in vivo, Drosophila
Series [1] has as its system mushroom body structure in dfmr1 null fly brain. Kind of series: Staining and analysis of mushroom body morphology. The settings on record: for mushroom body defects of dfmr1 mutant adults (in words): 0- to 2-day-old adults developed on LF supplemented with drug at optimal viability dose; for brain structural abnormality (mushroom body formation) in treated dFmr1 flies (in words) / percentage of normal brains (mushroom body) after treatment: Example 2; for percentage of normal brains (mushroom body) after treatment: dFmr1 flies, 27% without treatment. From the text:
A striking morphological phenotype of dfmr1 deficiency in Drosophila involves structural abnormalities of the mushroom body in the fly brain. The mushroom body, important for Drosophila learning and memory, is an axon-like fiber structure composed of three paired neuronal lobes (the α, β, and γ lobes). In dfmr1 null flies, the β lobes, which normally terminate at the midline cleft, often cross through the midline. In addition, dfmr1 null flies also have missing or misdirected α and β lobes, as well as truncated or over-branched lobes. […] To test whether compounds identified in the viability screen could rescue the mushroom body morphology, 0- to 2-day-old dfmr1 mutant adults were examined that developed on LF supplemented with four of the nine compounds identified above (GABA, nipecotic acid, creatinine, and isopilocarpine).
Brains from 0- to-2-day-old adults were dissected, fixed, and stained. Anti-Fascicilin II (ID4, Developmental Studies Hybridoma Bank) was used at 1:10 dilution and Alexa anti-mouse secondary antibody (Molecular probes) 1:100. Confocal microscopy was performed using a Leica Scanning laser confocal microscope. Neuronal lobe abnormalities were analyzed and scored by obtaining optical stacks of the α and β lobes as described.

For the next series, the system named is Futsch. Kind of series: Quantitative Western analysis of Futsch protein in fly head lysates. The conditions noted are these: flies raised on LF with drug at effective dosage. From the text: FIG. 3A illustrates a representative Western blot showing Futsch expression in w^1118, dfmr1^3+/−, and dfmr1^3−/− head lysates. Flies were raised on LF with or without drug supplements using the effective dosages. Heads from 0- to 2-day old adult flies were used to prepare protein lysates. β-actin was used as a loading control.
FIG. 3B illustrates the quantification of relative Futsch protein level from multiple Western blots using Kodak Imaging System software. The quantifications were based on duplicate Western analyses obtained from triplicate collections of […] from two separate drug treatments (6 sets of samples total). The futsch levels were first normalized to β-actin levels, then plotted as the percentage of change of each treatment/genotype compared to w^1118 (no drug), which was set as 100%.
Additionally, it was tested whether the same four compounds could rescue the biochemical phenotype of Futsch over-expression that is associated with dfmr1 deficiency. The mRNA of Futsch is normally bound and translationally repressed by dFmrp. Thus, loss of dFmrp results in excess Futsch translation.
Quantitative Western analyses were performed. Briefly, 0- to 2-day-old adult Drosophila heads were obtained, and homogenized in lysis buffer (10 mM Tris (pH 7.5), 150 mM NaCl, 30 mM EDTA (pH 8.0), 0.5% Triton X-100, and 1× complete protease inhibitor (Boehringer Mannheim). 30 fly heads were collected per sample. 10 μg total protein lysates were subjected to SDS-PAGE electrophoresis on a 4%-20% gradient Tris-HCl gel (Bio-Rad). Monoclonal anti-22C10 against Futsch (1:500) was purchased from the Developmental Studies Hybridoma Bank (DSHB), University of Iowa. For the loading control, an antibody against […] (Abcam) was used at a final concentration of 0.8 μg/ml. The signals were quantified using the Kodak Imaging System software.

Another series concerns dfmr1 null embryos. Kind of series: Initial small molecule screen: pupae/adult recovery of dfmr1 null embryos on commercial food (CF). The conditions noted are these: 12 null embryos per vial, CF supplemented with 40 μM compound, 25° C., 10 to 15 days. From the text: Since the rescue of dfmr1 null lethality is an easily scored phenotype, a relatively high throughput strategy was designed to screen chemical libraries for small molecules that can restore the viability of dfmr1 null flies raised on CF (FIG. 1D). In order to seed test vials with dfmr1 null embryos only, the dfmr1 mutation was balanced with a GFP-TM6C chromosome (w^1118; dfmr1^3/Kr: GFP, TM6C). This allowed sorting of the null dfmr1 mutants from other embryos by the absence of GFP fluorescence using a flow cytometry embryo sorter (COPAS SELECT). […]
The Spectrum Collection™ compound library was obtained from MicroSource Discovery Systems, Inc. Drugs used in larger quantities for confirmation and subsequent analysis were obtained from Sigma (St. Louis, Mo.) or Tocris-Cookson (UK). […]
(§1) For the initial screen, 12 dfmr13/dfmr13 (GFP−) embryos were placed in each well of a 96 well plate with CF+40 μM of individual drugs. 96-well plates were kept at 25° C. and the percentage of pupae and adults recovered was scored. […] Adult progeny were counted and the relative viability of homozygous null flies was scored as the percentage of viable adult progeny raised on CF+ drug compared to the progeny on LF alone.

The test system of series [2] is homozygous dfmr1-deficient flies. Kind of series: Fly viability assay: rescue of homozygous dfmr1 flies on CF (JAZMIX) plus drug. The settings on record: for recovery of homozygous dFmr1 flies: 0% on JAZMIX food alone. The procedure:
In particular, embodiments of the present disclosure include methods of screening compounds using a drosophila (fruit fly) based compound screen to identify drug candidates for the treatment of FMRP-loss related disorders.
The homozygous embryos are placed into an appropriate container (e.g., a 96-well container) containing a food with a lethal amount of glutamate and with or without a compound from a library of drugs candidates. The embryos were incubated at certain conditions for a certain amount of time (e.g., at about 25° C. for about 10 days) to allow embryonic development. The efficacy of the drug candidate is determined by scoring the number of pupae formation or the emergence of adult flies after a certain time frame. Files or pupae that came out from food with a nonlethal amount of glutamate were used as positive control, and flies or pupae that came out from food with lethal amounts of glutamate without drugs were used as negative control.
The separated homozygous embryos are then transferred to a regular fly culture vials or a 96-well container (e.g., 20 embryos per well) containing food with a lethal amount of glutamate with or without the drug (e.g., 300 μl of pre-mixed food and the drug). The embryos were incubated at 25° C. for about 10 days to allow embryonic development. The formation of pupae or adult flies can be directly quantified by visual inspection. Efficacy of drugs is determined by scoring the number of pupae formation or the emergence of adult flies after 10 days. Additional details regarding the active compositions and disorders are described in the Examples below.
(§2) To determine the cause of the observed CF lethality of dfmr1-deficient flies, HPLC amino acid analyses was performed on aqueous extracts of CF and LF food preparations and noted that the CF contained 1.8-fold more glutamate than the LF (FIG. 4). Since this could result in excess glutamate signaling, exacerbating the consequences of dFmrp loss, it was next determined whether supplementing LF with additional glutamate could decrease the viability of dfmr1-deficient flies. […] Indeed, 10 μM MPEP added to the CF rescued the homozygous deficient flies to approximately 60% of their normal viability on LF (FIG. 1C).
Fifteen of those compounds, as well as the MPEP-positive control, recovered pupal development from at least 25% of the seeded embryos (FIG. 5, Table 1). Each of these top 15 compounds underwent further validation using a larger-scale viability assay. Each vial was seeded with 100 embryos from dfmr1 heterozygous crosses, and adult progeny of both homozygous and heterozygous genotypes were counted 10 days later. Nine of the 15 compounds were validated and, for each of these, a dose-response analysis was performed to optimize the dosage (FIG. 5, Table 1). Using the optimal viability dose for each validated compound, it was explored whether other established phenotypes of dfmr1 deficiency are influenced by a selection of these compounds.
as §1

Series [3] relates to dfmr1 homozygous null progeny. Kind of series: Viability of flies on laboratory food (LF) supplemented with glutamate. The settings on record: glutamate added to LF, p<0.005. As to the method: FIG. 1B illustrates dfmr1-deficient flies raised on LF are sensitive to supplemented glutamate. Embryos of w^1118, dfmr1^3+/− and dfmr1^3−/− were allowed to develop on LF supplemented with additional glutamate. Relative viability was calculated within each genotype as the percentage of viable adult progeny raised on LF supplemented with glutamate compared to progeny raised on LF alone. (For w^1118 only: anything above 100% was indicated as 100%). (Error bar indicate SEM; *=P<0.005).
as §2

The structures appear in SMILES notation.

On to `NCCCC(=O)O` [GABA], for which the “mushroom body defects of dfmr1 mutant adults (in words)” value (“mushroom body defects” for short) in series [1] was “significantly improved”. Further, in the series with Futsch, the “elevated Futsch protein level in dfmr1 null flies (in words)” value (shortened to “elevated Futsch protein level”) is given as “did not significantly influence”.

With `Cc1cccc(C#Cc2ccccc2)n1` [MPEP], the “mushroom body defects” value in series [1] was “rescued”. Also, the “elevated Futsch protein level” value in the series on Futsch is recorded as “significantly reduced”. Moreover, in the series with dfmr1 null embryos, the “pupal development recovered, percentage of the seeded embryos” value is “at least 25%”. Moreover, the “viability of homozygous deficient flies relative to their normal viability on LF” value in series [2] (10 μM MPEP added to CF) is listed as “approximately 60%”. Further, in series [2] (CF supplemented with MPEP (10 μM), FIG. 1C, P<0.005), the “dfmr1^3−/− viability on CF (in words)” value was “improved”.

As to `CC[C@@H]1C(=O)OC[C@@H]1Cc1cncn1C` [Pilocarpine nitrate], in series [1], the “brain structural abnormality (mushroom body formation) in treated dFmr1 flies (in words)” value is recorded as “significant suppression” and the “percentage of normal brains (mushroom body) after treatment” value (“percentage of normal brains” for short) was determined as 79%. The “recovery of homozygous dFmr1 flies” value in series [2] (5 microM in JAZMIX food) came out at 88.5%.

For the compound `CN1CC(=O)NC1=N` [creatinine], in series [1], the “percentage of normal brains” value was 85%. In addition, the “recovery of homozygous dFmr1 flies” value in series [2] (40 microM in JAZMIX food) is listed as 123.2%.

In the case of `N[C@@H](CCC(=O)O)C(=O)O` [glutamate], the “viability of dfmr1 homozygous null progeny” value in series [3] was “dose-dependent decline”.

`CC[C@H]1C(=O)OC[C@@H]1Cc1cncn1C` [isopilocarpine]: the “mushroom body defects” value in series [1] was “significantly improved”. Moreover, in the series on Futsch, the “elevated Futsch protein level” value was “completely rescued”.

With `O=C(O)C1CCCNC1` (centres unmarked) [nipecotic acid], in series [1], the “mushroom body defects” value is “significantly improved”, the “brain structural abnormality (mushroom body formation) in treated dFmr1 flies (in words)” value is recorded as “significant suppression” and the “percentage of normal brains” value amounted to 73%. Moreover, the “elevated Futsch protein level” value in the series with Futsch is “did not significantly influence”. Also, the “recovery of homozygous dFmr1 flies” value in series [2] (40 microM in JAZMIX food) came out at 84%.

The record behind these values is patent publication US20150174112A1, “COMPOSITIONS FOR TREATING FRAGILE X AND OTHER DISORDERS METHODS OF USE THEREOF, AND SCREENING FOR COMPOUNDS FOR FRAGILE X AND OTHER DISORDERS” (EMORY UNIVERSITY, priority 2005, published 2015).
